# Test results reported in publication PMC11748363, “Antimicrobial and Antiproliferative Properties of 2‐Phenyl‐N‐(Pyridin‐2‐yl)acetamides” (Chemical Biology & Drug Design, 2025).
# Like-named read-outs stand apart in the source and are kept apart here.
# Key:
# [1] = test system: Mycobacterium tuberculosis H37Ra; design: method as in Nawrot et al. 2021; settings: previously published N‐pyridinyl benzamides; ref Nawrot et al. 2021; cited from earlier work
# [2] = test system: Candida tropicalis CCM 8264, ATCC 750; test: Antifungal microdilution broth MIC, CT
# HepG2 cell line = test: Cytotoxicity CellTiter 96, HepG2; type: cell-based, human; settings: Homo sapiens, HepG2, 24 h, 24 h incubation; ^c compound precipitated in the testing medium; ^d over the limit of tested concentrations
# Experimental: The cytotoxicity of final compounds was determined in human hepatocellular carcinoma cell line HepG2.
# Cytotoxicity determination
# Human hepatocellular liver carcinoma cell line HepG2 purchased from Health Protection Agency Culture Collections (ECACC, Salisbury, UK) was cultured in MEM (Minimum Essentials Eagle Medium, Sigma–Aldrich) supplemented with 10% fetal bovine serum (PAA Laboratories, Pasching, Austria), 1% L-glutamine solution (Sigma–Aldrich) and non-essential amino acid solution (Sigma–Aldrich) in a humidified atmosphere containing 5% CO2 at 37 °C. For subculturing, the cells were harvested after trypsin/EDTA (Sigma–Aldrich) treatment at 37 °C. To evaluate cytotoxicity, the cells treated with the tested substances were used as experimental groups whereas untreated HepG2 cells served as controls. The cells were seeded in density 10,000 cells per well in a 96 well plate. The next day the cells were treated with each of the tested substances dissolved in DMSO. The tested substances were
# in triplicates according to their solubility. Simultaneously, the controls representing 100% cell viability, 0% cell viability (the cells treated with 10% DMSO), no cell control and vehiculum controls were also
# the reagent from the kit CellTiter 96 AQueous One Solution Cell Proliferation Assay (CellTiter 96; PROMEGA, Fitchburg, USA) was added. After 2h incubation at 37 °C, absorbance of samples was recorded at 490 nm (TECAN, Infinita M200, Austria). A standard toxicological parameter IC50 was calculated by nonlinear regression from a semilogarithmic plot of incubation concentration versus percentage of absorbance relative to untre ated controls using GraphPad Prism 8 software.
# [3] = test system: Mycobacterium tuberculosis H37Ra; test: Antimycobacterial microdilution broth MIC (resazurin), Mtb H37Ra; type: cell-based; settings: for MIC: Mycobacterium tuberculosis, H37RA
# [4] = test system: Klebsiella pneumoniae CCM 4415, ATCC 10031; test: Antibacterial microdilution broth MIC, KP
# [5] = test system: Staphylococcus aureus subsp. aureus CCM 4750, ATCC 43300 (MRSA); test: Antibacterial microdilution broth MIC, MRSA; type: cell-based; settings: Staphylococcus aureus
# [6] = test system: Aspergillus fumigatus ATCC 204305; test: Antifungal microdilution broth MIC, AF
# [7] = test system: Acinetobacter baumannii DSM 30007, ATCC 19606; test: Antibacterial microdilution broth MIC, ACI; type: cell-based
# [8] = test system: Candida krusei CCM 8271, ATCC 6258; test: Antifungal microdilution broth MIC, CK; settings: Pichia kudriavzevii
# [9] = test system: Enterococcus faecalis CCM 4224, ATCC 29212; test: Antibacterial microdilution broth MIC, EF; type: cell-based
# [10] = test system: Candida albicans CCM 8320, ATCC 24433; test: Antifungal microdilution broth MIC, CA
# [11] = test system: Staphylococcus epidermidis CCM 4418, ATCC 12228; test: Antibacterial microdilution broth MIC, SE; type: cell-based
# [12] = test system: Trichophyton interdigitale CCM 8377, ATCC 9533; test: Antifungal microdilution broth MIC, TI; settings: Trichophyton interdigitale
# [13] = test system: Staphylococcus aureus CCM 4223, ATCC 29213; test: Antibacterial microdilution broth MIC, SA; type: cell-based; settings: Staphylococcus aureus
# [14] = test system: Aspergillus flavus CCM 8363; test: Antifungal microdilution broth MIC, AFla
# [15] = test system: Pseudomonas aeruginosa CCM 3955, ATCC 27853; test: Antibacterial microdilution broth MIC, PA; type: cell-based
# [16] = test system: Escherichia coli CCM 3954, ATCC 25922; test: Antibacterial microdilution broth MIC, EC; type: cell-based
# [17] = test system: Candida parapsilosis CCM 8260, ATCC 22019; test: Antifungal microdilution broth MIC, CP; settings: Lodderomyces parapsilosis
# [18] = test system: Mycolicibacterium smegmatis DSM 43465; test: Antimycobacterial microdilution broth MIC (resazurin), M. smegmatis; type: cell-based; settings: DSM43465, read-out: MIC M. smegmatis
# [19] = test system: Mycolicibacterium aurum DSM 43999; test: Antimycobacterial microdilution broth MIC (resazurin), M. aurum; type: cell-based; settings: DSM43999, read-out: MIC M. aurum
# [20] = test system: Lichtheimia corymbifera CCM 8077; test: Antifungal microdilution broth MIC, LC
# [21] = Calculated from MIC (μg/mL), read-out: MIC Mtb H37Ra
# [22] = ATCC204305, 24 h, read-out: MIC AF 24h
# [23] = ATCC204305, 48 h, read-out: MIC AF 48h
# [24] = CCM8363, 24 h, read-out: MIC AFla 24h
# [25] = CCM8363, 48 h, read-out: MIC AFla 48h
# [26] = CCM8077, 24 h, read-out: MIC LC 24h
# [27] = CCM8077, 48 h, read-out: MIC LC 48h
Compound,"MIC Mtb H37Ra (μg/mL), previously published compounds [1] [µg/mL]","MIC ([2]; 24 h, read-out: MIC CT 24h) [µM]","MIC ([2]; 48 h, read-out: MIC CT 48h) [µM]",IC50 (HepG2 cell line) [µM],MIC KP 24h [4] [µM],MIC KP 48h [4] [µM],"MIC ([5]; 24 h, read-out: MIC MRSA 24h) [µM]","MIC ([5]; 48 h, read-out: MIC MRSA 48h) [µM]","MIC [6, 22] [µM]","MIC [6, 23] [µM]","MIC ([7]; 24 h, read-out: MIC ACI 24h) [µM]","MIC ([7]; 48 h, read-out: MIC ACI 48h) [µM]","MIC ([8]; 24 h, read-out: MIC CK 24h) [µM]","MIC ([8]; 48 h, read-out: MIC CK 48h) [µM]","MIC ([9]; 24 h, read-out: MIC EF 24h) [µM]","MIC ([9]; 48 h, read-out: MIC EF 48h) [µM]","MIC ([10]; 24 h, read-out: MIC CA 24h) [µM]","MIC ([10]; 48 h, read-out: MIC CA 48h) [µM]","MIC ([11]; 24 h, read-out: MIC SE 24h) [µM]","MIC ([11]; 48 h, read-out: MIC SE 48h) [µM]",also measured
"O=C(Nc1ccc(Cl)cn1)c1ccccc1Cl [C00003 R1=5-Cl,R2=2-Cl]",> 500,–,–,–,–,–,–,–,–,–,–,–,–,–,–,–,–,–,–,–,–
"COc1ccccc1C(=O)Nc1ccc(Cl)cn1 [C00003 R1=5-Cl,R2=2-OMe]",31.25,–,–,–,–,–,–,–,–,–,–,–,–,–,–,–,–,–,–,–,–
"O=C(Nc1ccc(Cl)cn1)c1cccc(C(F)(F)F)c1 [C00003 R1=5-Cl,R2=3-CF3]",7.81,–,–,–,–,–,–,–,–,–,–,–,–,–,–,–,–,–,–,–,–
"O=C(Nc1ccc(Cl)cn1)c1cccc(Cl)c1 [C00003 R1=5-Cl,R2=3-Cl]",31.25,–,–,–,–,–,–,–,–,–,–,–,–,–,–,–,–,–,–,–,–
"COc1cccc(C(=O)Nc2ccc(Cl)cn2)c1 [C00003 R1=5-Cl,R2=3-OMe]",62.5,–,–,–,–,–,–,–,–,–,–,–,–,–,–,–,–,–,–,–,–
O=C(Cc1ccc(C(F)(F)F)cc1)Nc1ccc(Cl)cn1 [Compound 29],–,> 500,> 500,> 50,> 500,> 500,> 500,> 500,> 500,> 500,> 500,> 500,> 500,> 500,> 500,> 500,> 500,> 500,250,250,"MIC [3, 21]: 397 µM; MIC ([3]; read-out: MIC Mtb H37Ra): 125 µg/mL; MIC ([12]; 72 h, read-out: MIC TI 72h): > 500 µM; MIC ([12]; 120 h, read-out: MIC TI 120h): > 500 µM; MIC ([13]; 24 h, read-out: MIC SA 24h): > 500 µM; MIC ([13]; 48 h, read-out: MIC SA 48h): > 500 µM; MIC [14, 24]: > 500 µM; MIC [14, 25]: > 500 µM; MIC ([15]; 24 h, read-out: MIC PA 24h): > 500 µM; MIC ([15]; 48 h, read-out: MIC PA 48h): > 500 µM; MIC ([16]; 24 h, read-out: MIC EC 24h): > 500 µM; MIC ([16]; 48 h, read-out: MIC EC 48h): > 500 µM; MIC ([17]; 24 h, read-out: MIC CP 24h): > 500 µM; MIC ([17]; 48 h, read-out: MIC CP 48h): > 500 µM; MIC [18]: > 500 mg/L; MIC [19]: > 500 mg/L; MIC [20, 26]: > 500 µM; MIC [20, 27]: > 500 µM"
O=C(Cc1ccc(F)cc1)Nc1ccccn1 [Compound 31],–,> 500,> 500,517,> 500,> 500,> 500,> 500,> 500,> 500,> 500,> 500,500,500,> 500,> 500,> 500,> 500,250,> 500,"MIC [3, 21]: 543 µM; MIC ([3]; read-out: MIC Mtb H37Ra): 125 µg/mL; MIC ([12]; 72 h, read-out: MIC TI 72h): > 500 µM; MIC ([12]; 120 h, read-out: MIC TI 120h): > 500 µM; MIC ([13]; 24 h, read-out: MIC SA 24h): 500 µM; MIC ([13]; 48 h, read-out: MIC SA 48h): > 500 µM; MIC [14, 24]: > 500 µM; MIC [14, 25]: > 500 µM; MIC ([15]; 24 h, read-out: MIC PA 24h): > 500 µM; MIC ([15]; 48 h, read-out: MIC PA 48h): > 500 µM; MIC ([16]; 24 h, read-out: MIC EC 24h): > 500 µM; MIC ([16]; 48 h, read-out: MIC EC 48h): > 500 µM; MIC ([17]; 24 h, read-out: MIC CP 24h): 500 µM; MIC ([17]; 48 h, read-out: MIC CP 48h): > 500 µM; MIC [18]: 62.5 mg/L; MIC [19]: 250 mg/L; MIC [20, 26]: > 500 µM; MIC [20, 27]: > 500 µM"
O=C(Cc1ccc(F)cc1)Nc1ccc(Cl)cn1 [Compound 32],–,> 500,> 500,> 250,> 500,> 500,> 500,> 500,> 500,> 500,> 500,> 500,> 500,> 500,> 500,> 500,> 500,> 500,125,125,"MIC ([3]; read-out: MIC Mtb H37Ra (μM)): 59 µM; MIC ([3]; read-out: MIC Mtb H37Ra (μg/mL)): 15.6 µg/mL; MIC ([12]; 72 h, read-out: MIC TI 72h): > 500 µM; MIC ([12]; 120 h, read-out: MIC TI 120h): > 500 µM; MIC ([13]; 24 h, read-out: MIC SA 24h): > 500 µM; MIC ([13]; 48 h, read-out: MIC SA 48h): > 500 µM; MIC [14, 24]: > 500 µM; MIC [14, 25]: > 500 µM; MIC ([15]; 24 h, read-out: MIC PA 24h): > 500 µM; MIC ([15]; 48 h, read-out: MIC PA 48h): > 500 µM; MIC ([16]; 24 h, read-out: MIC EC 24h): > 500 µM; MIC ([16]; 48 h, read-out: MIC EC 48h): > 500 µM; MIC ([17]; 24 h, read-out: MIC CP 24h): > 500 µM; MIC ([17]; 48 h, read-out: MIC CP 48h): > 500 µM; MIC [18]: 62.5 mg/L; MIC [19]: 500 mg/L; MIC [20, 26]: > 500 µM; MIC [20, 27]: > 500 µM"
O=C(Cc1ccc(F)cc1)Nc1cccc(Cl)n1 [Compound 33],–,> 500,> 500,213,> 500,> 500,> 500,> 500,> 500,> 500,> 500,> 500,31.2,62.5,> 500,> 500,> 500,> 500,> 500,> 500,"MIC [3, 21]: 59 µM; MIC ([3]; read-out: MIC Mtb H37Ra): 15.6 µg/mL; SI (selectivity index) ([3]; SI = HepG2 IC50 (μM)/MIC MtbH37Ra (μM), calculated for compounds with MIC ≤ 31.25 μg/mL): 3.6; MIC ([12]; 72 h, read-out: MIC TI 72h): > 500 µM; MIC ([12]; 120 h, read-out: MIC TI 120h): > 500 µM; MIC ([13]; 24 h, read-out: MIC SA 24h): > 500 µM; MIC ([13]; 48 h, read-out: MIC SA 48h): > 500 µM; MIC [14, 24]: > 500 µM; MIC [14, 25]: > 500 µM; MIC ([15]; 24 h, read-out: MIC PA 24h): > 500 µM; MIC ([15]; 48 h, read-out: MIC PA 48h): > 500 µM; MIC ([16]; 24 h, read-out: MIC EC 24h): > 500 µM; MIC ([16]; 48 h, read-out: MIC EC 48h): > 500 µM; MIC ([17]; 24 h, read-out: MIC CP 24h): > 500 µM; MIC ([17]; 48 h, read-out: MIC CP 48h): > 500 µM; MIC [18]: 500 mg/L; MIC [19]: 250 mg/L; MIC [20, 26]: > 500 µM; MIC [20, 27]: > 500 µM"
